Source: US20240066057A1, “METHOD FOR TREATING PAIN USING VANADIUM COMPOUNDS” (HUNAN FANGSHENGTAI MEDICAL TECHNOLOGY CO., LTD, priority 2020, published 2024)

Assays:
[1] = system: Kunming mice with CFA-induced inflammation; assay: Von Frey test (50% paw withdrawal threshold) in CFA-induced inflammatory pain mouse model; format: in vivo
Description: 10 μL of complete Freund's adjuvant (CFA) was injected into the left hind foot of mice (♂ Kunming mice, 22 g to 40 g) to induce inflammation. 24 hours after the injection, a Von Frey test was performed to determine a pain threshold. That is, under the guidance of Dixon's Up-Down method, Von Frey fibers were used to induce the mechanical paw withdrawal of the mice, and data were collected and calculated to obtain their 50% paw withdrawal thresholds (paw withdrawal threshold or PWT for short, i.e. pain threshold). Mice were then divided into different groups, including a normal saline group, a positive control group, and a drug group, which were intraperitoneally injected with normal saline, an aspirin (acetylsalicylic acid, or ASA) solution and a solution of compound for testing respectively. A Von Frey test was then performed to monitor changes in pain threshold.
Mice were divided into three groups: a blank control group, an aspirin (ASA) group, and a drug group. In blank control group, the mice were given normal saline, deionized water or deionized water containing ≤5% DMSO at the same volume as that in the drug group. In ASA group, the mice were given the known analgesic drug ASA as the positive control for tested compounds. In drug group, the mice were given compounds for testing accordingly. Due attention was paid to observe whether the pain threshold rose, the period during which the rise was maintained and the magnitude of the rise, after the injection of a tested compound solution.

[2] = system: Kunming mice with CFA-induced inflammation; assay: Effective concentration and plateau experiment of vanadium compounds, tail vein injection, mouse pain model; format: in vivo; details: for Duration / Maximum analgesic intensity (mean) / Onset time: 6 samples
[3] = Example 3, intraperitoneal injection, A1 0.97 mg/kg (atomic mass of vanadium), S about 250 mg/kg
[4] = intraperitoneal injection, doses as in Examples 3-9
[5] = intraperitoneal injection, doses as in Examples 3-9, most of the time after onset
[6] = Plateau experiment, dose (vanadium) A5/G3 0.25, A1/G1/H1 0.49, A4/G2/H2 0.97, H3 1.9 mg/kg, listed as A1
[7] = Plateau experiment, dose (vanadium) A5/G3 0.25, A1/G1/H1 0.49, A4/G2/H2 0.97, H3 1.9 mg/kg, listed as A4
[8] = Plateau experiment, dose (vanadium) A5/G3 0.25, A1/G1/H1 0.49, A4/G2/H2 0.97, H3 1.9 mg/kg, listed as A5
[9] = Effective concentration table, 8.2 × 10^−4 mg/kg
[10] = Plateau experiment, dose (vanadium) A5/G3 0.25, A1/G1/H1 0.49, A4/G2/H2 0.97, H3 1.9 mg/kg, listed as G2
[11] = Plateau experiment, dose (vanadium) A5/G3 0.25, A1/G1/H1 0.49, A4/G2/H2 0.97, H3 1.9 mg/kg, listed as G3
[12] = Example 11 (BMOV), intraperitoneal injection, H1 about 0.97 mg/kg (atomic mass of vanadium)
[13] = Plateau experiment, dose (vanadium) A5/G3 0.25, A1/G1/H1 0.49, A4/G2/H2 0.97, H3 1.9 mg/kg, listed as H1
[14] = Plateau experiment, dose (vanadium) A5/G3 0.25, A1/G1/H1 0.49, A4/G2/H2 0.97, H3 1.9 mg/kg, listed as H2
[15] = Plateau experiment, dose (vanadium) A5/G3 0.25, A1/G1/H1 0.49, A4/G2/H2 0.97, H3 1.9 mg/kg, 1.9 mg/kg
[16] = Example 12, intraperitoneal injection, J about 0.97 mg/kg (atomic mass of vanadium)
[17] = Example 14, intraperitoneal injection, L about 0.97 mg/kg (atomic mass of vanadium)
[18] = Example 15, intraperitoneal injection, M about 0.97 mg/kg (atomic mass of vanadium)
[19] = Example 13, intraperitoneal injection, K about 0.97 mg/kg (atomic mass of vanadium)
[20] = Example 5, intraperitoneal injection, C 1.9 mg/kg (atomic mass of vanadium), S about 250 mg/kg
[21] = intraperitoneal injection, conclusions of Examples 3-9
[22] = intraperitoneal injection, versus aspirin control group
[23] = Example 6, intraperitoneal injection, D 1.9 mg/kg, S about 250 mg/kg, listed as D
[24] = Example 11 (BEOV), intraperitoneal injection, I about 0.97 mg/kg (atomic mass of vanadium)

[Na+].[Na+].[Na+].[O]=[V]([O-])([O-])[O-] [Solution A1, Sodium orthovanadate]
Duration [1, 3]: >60 min | Onset time [1, 3]: 30 to 45 after injection min | Duration ([1]; Example 4, intraperitoneal injection, A1 0.97, A2 0.19, A3 0.097 mg/kg (atomic mass of vanadium)): >60 min | Onset time ([1]; Example 4, intraperitoneal injection, A1 0.97, A2 0.19, A3 0.097 mg/kg (atomic mass of vanadium), listed as A1): 30 to 45 after injection min | Time after injection at which the pain threshold returned to the baseline value [1, 4]: > 90 min | Pain thresholds / analgesic intensity compared with the S (ASA, aspirin) group [1, 5]: generally higher than those of the mice in the S group | Duration [2, 6]: >60 min | Maximum analgesic intensity (mean) [2, 6]: ~0.55 g

[Na+].[Na+].[Na+].[O]=[V]([O-])([O-])[O-] [Solution A2, Sodium orthovanadate]
Onset time ([1]; Example 4, intraperitoneal injection, A1 0.97, A2 0.19, A3 0.097 mg/kg (atomic mass of vanadium), listed as A2): 30 to 45 after injection min

[Na+].[Na+].[Na+].[O]=[V]([O-])([O-])[O-] [Solution A3, Sodium orthovanadate]
Onset time ([1]; Example 4, intraperitoneal injection, A1 0.97, A2 0.19, A3 0.097 mg/kg (atomic mass of vanadium), 0.097 mg/kg): 30 to 45 after injection min

[Na+].[Na+].[Na+].[O]=[V]([O-])([O-])[O-] [Solution A4, Sodium orthovanadate]
Duration [2, 7]: <60 min | Maximum analgesic intensity (mean) [2, 7]: ~0.30 g

[Na+].[Na+].[Na+].[O]=[V]([O-])([O-])[O-] [Solution A5, Sodium orthovanadate]
Duration [2, 8]: >60 min | Maximum analgesic intensity (mean) [2, 8]: ~0.45 g

[Na+].[Na+].[Na+].[O]=[V]([O-])([O-])[O-] [Solution A6, Sodium orthovanadate]
Duration [2, 9]: <60 min | Onset time [2, 9]: 0 to 15 min

O=S(=O)([O-])[O-].[O]=[V+2] [Solution G2, Vanadyl sulfate]
Duration [2, 10]: no obvious difference | Maximum analgesic intensity (mean) [2, 10]: ~0.49 g

O=S(=O)([O-])[O-].[O]=[V+2] [Solution G3, Vanadyl sulfate]
Duration [2, 11]: >60 min | Maximum analgesic intensity (mean) [2, 11]: ~0.46 g

O=S(=O)([O-])[O-].[O]=[V+2] [Solution G4, Vanadyl sulfate]
Duration [2, 9]: <60 min | Onset time [2, 9]: 0 to 15 min

O=S(=O)([O-])[O-].[O]=[V+2] [Solution G, Vanadyl sulfate]
Minimum effective dose ([2]; mice): about 1.0×10^−3 mg/kg | Blood concentration in mice equivalent to the plateau dose ([2]; plateau dose 0.49 mg/kg): 140 µM

Cc1occc(=O)c1[O-].Cc1occc(=O)c1[O-].[O]=[V+2] [Solution H1, bis(maltolato)oxovanadium (IV)]
Duration [1, 12]: >60 min | Onset time [1, 12]: 0 to 15 after injection min | Duration [2, 13]: ≤60 min | Maximum analgesic intensity (mean) [2, 13]: 0.33 g

Cc1occc(=O)c1[O-].Cc1occc(=O)c1[O-].[O]=[V+2] [Solution H2, bis(maltolato)oxovanadium (IV)]
Duration [2, 14]: >60 min | Maximum analgesic intensity (mean) [2, 14]: 0.54 g

Cc1occc(=O)c1[O-].Cc1occc(=O)c1[O-].[O]=[V+2] [Solution H3, bis(maltolato)oxovanadium (IV)]
Duration [2, 15]: ≤60 min | Maximum analgesic intensity (mean) [2, 15]: 0.48 g

Cc1occc(=O)c1[O-].Cc1occc(=O)c1[O-].[O]=[V+2] [Solution H, bis(maltolato)oxovanadium (IV)]
Plateau dose ([2]; mice, based on vanadium): ≥ 0.97 mg/kg

[O]=[V-2]12([O]C3=COC(CO)=CC3=[O+]1)[O]C1=COC(CO)=CC1=[O+]2 [Solution J, bis(kojato)oxovanadium (IV)]
Duration [1, 16]: >60 min | Onset time [1, 16]: 15 to 30 after injection min

O=C([O-])C(=O)[O-].[O]=[V+2] [Solution L, Vanadyl oxalate]
Duration [1, 17]: >60 min | Onset time [1, 17]: 15 to 30 after injection min

O=C(O)c1ccccn1.O=C(O)c1ccccn1.[O]=[V] [Solution M, Bis(picolinato)oxovanadium (IV)]
Duration [1, 18]: >60 min | Onset time [1, 18]: 15 to 30 after injection min

Bis(acetylacetonato)oxovanadium (IV) [Solution K]
Duration [1, 19]: >60 min | Onset time [1, 19]: 15 to 30 after injection min

Cis-bis(maltolato)methoxyoxovanadium (V) [Solution C]
Duration [1, 20]: about 60 min | Onset time [1, 20]: 15 to 30 after injection min | Analgesic effect [1, 21]: has an analgesic effect | Time after injection at which the pain threshold returned to the baseline value [1, 4]: 90 min | Pain thresholds / analgesic intensity compared with the S (ASA, aspirin) group [1, 5]: comparable to those of the mice, boosted by the solution S, in the S group | Effective duration compared with aspirin (ASA) [1, 22]: longer than that of aspirin

Sodium metavanadate [Solution D]
Duration [1, 23]: >60 min | Onset time [1, 23]: 0 to 15 after injection min | Duration ([1]; Example 6, intraperitoneal injection, D 1.9 mg/kg, S about 250 mg/kg, listed as metavanadate): > 60 min | Analgesic effect [1, 21]: has an analgesic effect | Time after injection at which the pain threshold returned to the baseline value [1, 4]: ~90 min | Pain thresholds / analgesic intensity compared with the S (ASA, aspirin) group [1, 5]: greater than or comparable to those of the mice, boosted by the solution S, in the S group | Effective duration compared with aspirin (ASA) [1, 22]: longer than that of aspirin

bis(ethylmaltolato)oxovanadium (IV) [Solution I]
Duration [1, 24]: >60 min | Onset time [1, 24]: 15 to 30 after injection min

potassium dioxo(citrato)vanadate (V) [Solution F]
Duration ([1]; mouse, in vivo): >60 min | Onset time ([1]; mouse, in vivo): 15 to 30 after injection min | Analgesic effect ([1]; mouse, in vivo, ip): has an analgesic effect | Effective duration compared with aspirin (ASA) ([1]; mouse, in vivo, ip): longer than that of aspirin | Pain thresholds / analgesic intensity compared with the S (ASA, aspirin) group ([1]; mouse, in vivo, ip): higher than those of the mice, boosted by the solution S, in the S group | Time after injection at which the pain threshold returned to the baseline value ([1]; mouse, in vivo, ip): > 90 min
